A short description of the series: Behaviour of crystalline forms in humid atmosphere. In kind it is physicochemical. From the text: The invention also relates to processes for making a dihydrate form of the sodium salt of (1R,2S,5R)-7-oxo-6-sulphooxy-1,6-diazabicyclo[3.2.1]octane-2-carboxamide called Form III. In exemplary embodiments, crystals of Form II are suspended in water, and the suspension is then left to evaporate slowly in a humid atmosphere. Crystals can also been obtained by trituration of crystals of Form II in water or in an alkanol-water mixture, or by conversion, in a humid atmosphere, of the anhydrous Form I and Form IV to the monohydrated Form II and then to the dihydrated Form III.

For `NC(=O)[C@@H]1CC[C@@H]2CN1C(=O)N2OS(=O)(=O)[O-].[Na+]` [Form III, trans-7-oxo-6-(sulphooxy)-1,6-diazabicyclo[3,2,1]octane-2-carboxamide sodium salt], the “stability at higher humidities” value is recorded as “particularly stable”.

The record behind these values is patent publication US8835455B2, “Crystalline forms of trans-7-oxo-6-(sulphooxy)-1,6-diazabicyclo[3,2,1]octane-2-carboxamide sodium salt” (Forest Laboratories Holdings Limited, priority 2009, dated 2014).
